Source: PubChem BioAssay (NCI)
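The concentration for 50% growth inhibition is given as GI50. Definition used: TGI = concentration required for complete inhibition of growth.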

Experiments:
Assay in all cases: NCI tumour cell line growth inhibition, 384-well format
[1] = tested on: NCI-H23 lung
[2] = tested on: NCI-H322M lung
[3] = tested on: NCI-H460 NSCLC
[4] = tested on: NCI-H522 lung
[5] = tested on: NCI/ADR-RES ovarian
[6] = tested on: OVCAR-3 ovarian
[7] = tested on: OVCAR-4 ovarian
[8] = tested on: OVCAR-5 ovarian
[9] = tested on: OVCAR-8 ovarian
[10] = tested on: PC-3 prostate
[11] = tested on: RPMI-8226 leukemia
[12] = tested on: RXF 393 renal
[13] = tested on: SF-268 CNS
[14] = tested on: SF-295 CNS
[15] = tested on: SF-539 CNS
[16] = tested on: SK-MEL-28 melanoma
[17] = tested on: SK-MEL-5 melanoma
[18] = tested on: SK-OV-3 ovarian
[19] = tested on: SN12C renal
[20] = tested on: SNB-19 CNS
[21] = tested on: SNB-75 CNS
[22] = tested on: SR leukemia
[23] = tested on: T-47D breast
[24] = tested on: TK-10 renal
[25] = tested on: U251 glioblastoma
[26] = tested on: UACC-257 melanoma
[27] = tested on: UACC-62 melanoma

## Clc1ccc(N2CCC(N3CCCC3)CC2)cc1-c1nc2ccccc2[nH]1
[1]
  GI50: 14.1 µM
  TGI: 27.7 µM
[2]
  GI50: 14.3 µM
  TGI: 32 µM
[3]
  GI50: 17.2 µM
  TGI: 31.4 µM
[4]
  GI50: 17.7 µM
  TGI: 31.6 µM
[5]
  GI50: 15.4 µM
  TGI: 32.5 µM
[6]
  GI50: 14.6 µM
  TGI: 28 µM
[7]
  GI50: 11.9 µM
  TGI: 25.9 µM
[8]
  GI50: 15.8 µM
  TGI: 30.1 µM
[9]
  GI50: 16.7 µM
  TGI: 31.1 µM
[10]
  GI50: 15.1 µM
  TGI: 30.5 µM
[11]
  GI50: 16.1 µM
  TGI: 29.7 µM
[12]
  GI50: 15.1 µM
  TGI: 28.6 µM
[13]
  GI50: 16.3 µM
  TGI: 30.1 µM
[14]
  GI50: 17.8 µM
  TGI: 31.8 µM
[15]
  GI50: 16.9 µM
  TGI: 30.9 µM
[16]
  GI50: 14.9 µM
  TGI: 28.3 µM
[17]
  GI50: 4.01 µM
  TGI: 16 µM
[18]
  GI50: 14.1 µM
  TGI: 27.5 µM
[19]
  GI50: 11.8 µM
  TGI: 24.5 µM
[20]
  GI50: 18.2 µM
  TGI: 37 µM
[21]
  GI50: 16.9 µM
  TGI: 31 µM
[22]
  GI50: 11.8 µM
  TGI: 24.2 µM
[23]
  GI50: 13.9 µM
  TGI: 27.4 µM
[24]
  GI50: 12.4 µM
  TGI: 25 µM
[25]
  GI50: 16.9 µM
  TGI: 30.7 µM
[26]
  GI50: 2 µM
  TGI: 4.78 µM
[27]
  GI50: 13.5 µM
  TGI: 26.6 µM
